Assay results from publication PMC7340446, “Optimization of PTH/PTHrP Hybrid Peptides to Derive a Long‐Acting PTH Analog (LA‐PTH)” (JBMR Plus, 2020).
Where no end group is shown, it is not given here.

Assays:
[1] = Pharmacokinetics in normal rats, i.v., plasma peptide by ELISA; format: in vivo, rat; conditions: i.v. 10 nmol/kg, plasma with protease inhibitors, n = 4 (M‐PTH/PTHrP) or 3 (PTH(1–34))
Procedure: For pharmacokinetic studies, plasma samples were prepared in the presence of protease inhibitors (aprotinin, leupeptin, EDTA). Plasma levels of PTH(1–34) were assessed by ELISA assay (Human PTH(1–34) Specific ELISA Kit; Immutopics Inc, San Clemente, CA, USA), and plasma levels of M‐PTH/PTHrP were assessed by ELISA assay (PTH‐RP 1–34 Human Enzyme Immunoassay Kit; Peninsula Laboratories International, San Carlos CA, USA) using M‐PTH/PTHrP peptides as standard solutions.
Figure 3 Pharmacodynamic and pharmacokinetic profiles of M‐PTH/PTHrP and PTH(1–34) in rats. (A) Effects of M‐PTH/PTHrP and PTH(1–34) on blood ionized Ca in TPTX rats by i.v. injection. M‐PTH/PTHrP and PTH(1–34) were injected intravenously in TPTX rats at the indicated doses, and blood samples were collected from the tail vein measured for ionized Ca; data are means ± SE; n = 5 or 3 (PTH(1–34)). *p < 0.05, **p < 0.01, ***p < 0.005 M‐PTH/PTHrP or PTH(1–34) versus TPTX‐vehicle. […] M‐PTH/PTHrP and PTH(1–34) each at a dose of 10 nmol/kg were i.v. administered, and blood samples were collected from the jugular vein in the presence of proteinase inhibitors (Aprotinin, Leupeptin, and EDTA) and the plasma samples were assessed for peptide concentration using a hPTHrP(1–34)‐targeted EIA for M‐PTH/PTHrP and an hPTH(1–34)‐targeted ELISA for PTH(1–34). […]

[2] = test system: thyroparathyroidectomized (TPTX) rats; assay: Repeated daily administration in TPTX rats (11‐day treatment, 12‐day study); format: in vivo, rat; conditions: daily s.c. 8.0 nmol/kg
Procedure: TPTX rats were injected i.v. or s.c. with vehicle or vehicle containing a PTH peptide, or orally treated once daily with vehicle (medium‐chain triglyceride; Chugai Pharma Manufacturing, Tokyo, Japan) or vehicle containing alfacalcidol (Chugai Pharma Manufacturing) for 11 days. Blood samples were obtained from the tail or jugular vein immediately before and at times after injection. Urine samples at 0 to 8 hours or 8 to 24 hours, were collected in metabolic cages. sCa and uCa, serum inorganic phosphorus (sPi) and urinary phosphorus (uPi), and creatinine (uCre) were measured with an automatic analyzer (7180; Hitachi, Ltd, Chiyoda, Tokyo, Japan). Urinary deoxypyridinoline (uDpD) was measured using a Metra DPD EIA kit (DS Pharma Biomedical, Osaka, Japan), and the data were normalized to the uCre concentrations. Serum FGF23 was measured using FGF23 ELISA assay (Immunodiagnostik AG, Bensheim, Germany). Serum 1,25‐dihydroxyvitamin D [1,25(OH)2D3] levels were determined by a ELISA immunoassay (Immunodiagnostic System Ltd, Bolden, UK).
Figure 4 Effects of 11‐day treatment (12‐day study) with M‐PTH/PTHrP or alfacalcidol on serum calcium (sCa) in thyroparathyroidectomized (TPTX) rats. TPTX rats were treated for 11 days with daily s.c. injection of either vehicle or M‐PTH/PTHrP, or with daily oral alfacalcidol at the indicated doses, and sham‐surgery control rats were s.c. injected daily with vehicle. The levels of Ca in serum and urine were assessed. Blood samples were collected from the jugular vein at 8 hours (A) and at 24 hours (B) after the last treatment administration, and assessed for total sCa. Total urine was collected in metabolic cages over the time intervals of 0 to 8 hours (C), and 8 to 24 hours (D) and assessed for total urinary Ca. Data are means ± SEM; n = 6 or 5 (2.0 and 4.0 nmol/kg of M‐PTH/PTHrP); *p < 0.05 M‐PTH/PTHrP versus TPTX‐vehicle; #p < 0.05 TPTX vehicle versus sham.
Supplementary file JBM4-4-e10367-s001.pdf: Figure S1 PTH ligand‐induced cAMP‐signaling responses in GP‐2.3 cells Time course of the cAMP‐dependent luminescence response measured at 2‐minute intervals in the presence of each ligand at 10 nM (Ligand on‐phase) and B) Time course of the cAMP‐dependent luminescence response measured at 2‐minute intervals after washout of unbound ligand (Ligand wash‐out phase). GP‐2.3 cells preloaded with luciferin were treated with a concentration of PTH ligand at a concentration of 10 nM for 30 min, and cAMP‐dependent luminescence was measured at two‐minute intervals (ligand‐on phase). The cells were then removed from the plate reader, rinsed twice with media to remove unbound ligand, and then fresh media containing luciferin but lacking ligand was added and luminescence was assessed for additional 90 min (Ligand wash‐out phase). Data are means (± SEM) of four experiments, each performed in triplicate. Figure S2. In vivo calcemic actions of M‐PTH/PTHrP hybrid analogs in normal rats. The indicated M‐PTH/PTHrP hybrid analogs (sequences are shown in Figure 1) along with PTH(1–34) and PTHrP(1–36) controls, were administered at the indicated doses by i.v. injection, and at the indicated time points blood was collected from the tail vein and measured for ionized calcium (Ca^2+). Panels A‐C represent three separate experiments. Data are means ± SEM; n = 6 or 4 (80 nmol/kg of M‐PTH(1‐11)/PTHrP(12–36), M‐PTH(1‐14)/PTHrP(12–36), M‐PTH(1‐17)/PTHrP(18–36) and 1.25 nmol/kg of M‐PTH(1–30)/PTHrP(31–36)). *p < 0.05 versus Vehicle. Figure S3. Effects of 11 days treatment (12 days study) of M‐PTH/PTHrP on serum 1,25(OH) 2 Vitamin‐D3, urinary deoxypyridinoline (Dpd) and serum FGF23 in TPTX rats. Serum and urine samples obtained from the TPTX and sham control rats of the two‐week daily‐administration experiment shown in Figure 4 were analyzed by ELISA for the indicated markers. A) serum 1,25(OH)2Vitamin‐D3. B) urinary deoxypyridinoline (DpD)/Cre. C) serum FGF23. […]

[3] = Peptide solubility in aqueous buffers of neutral pH; format: physicochemical; conditions: aqueous buffers at neutral pH; approximate

Sequence: AVAEIQLMHQRAKWIQDLRRRFFLHHLIAEIHTAEI [M‐PTH(1‐14)/PTHrP(15‐36), [Ala^1,3,12,Gln^10,Arg^11,Trp^14]‐PTH(1‐14)/PTHrP(15–36)]
- Time by which plasma concentration declined to the lowest detection level [1]: ≤ 60 min
- sCa levels ([2]; 8 hours after administration): frank hypercalcemia
- uCa at 0 to 8 hours and uDpD at 0 to 24 hours ([2]; after the last administration): increased significantly
- Concentration at which the peptide is poorly soluble [3]: > 300 µg/mL
